# Test results from patent US8735575B2, “Phenoxazine derivatives and methods of use thereof” (Washington University, priority 2010, dated 2014).
# Read-outs that look alike come from different tables or passages of the source.
# How the values were obtained:
# [1] = system: cerebrovascular Aβ deposits; assay: In vivo live imaging of CAA amyloid deposits through closed cranial window; design: species or system mouse (Tg2576); details: 16-month old Tg2576 mice, resorufin 2 μM
# Experimental: FIG. 4 depicts in vivo live imaging of CAA amyloid deposits through closed cranial window. A,B. Closed cranial window was prepared on the right parietal bone of 16-month-old Tg2576 mice. Leptomeningeal arterioles (B) were subjected to live imaging using a fluorescent microscope. […] Scale bars: in C-E: 250 μm, in E: 100 μm.
# (§1) The logPoct value is widely used in quantitative structure-activity relationship (QSAR) studies and rational drug design as a measure of molecular hydrophobicity. Hydrophobicity affects drug absorption, bioavailability, hydrophobic drug-receptor interactions, metabolism of molecules, and their toxicity. […] The mixture will be incubated with agitation for 30 min until ionic and non-ionic forms of test compound reach equilibrium. Two layers will be separated by centrifugation. Test compound's concentrations in octanol and water layers will be determined by UV/VIS spectrophotometry. The logPoct value will be calculated from log(concentration in n-octanol fraction/concentration in water fraction). Experiments will be repeated at least 3 times with triplicated samples.
# [2] = cited from earlier work; for Lipophilicity Poct: data from the previous report (Klunk et al. 2002)
# [3] = physchem; assay type: physicochemical
# Experimental: as §1
# [4] = biological target: T1, CAA (Homo sapiens, UniProt P05067); assay: In situ binding assay on CAA in fixed brain sections of Tg2576 mice; design: species or system mouse (Tg2576); Binding affinity in situ, Bmax on CAA: unit not given here; details: for Kd: read-out: Binding affinity in situ, KD (nM) on CAA
# [5] = biological target: T1, CAA; assay: as above; design: species or system mouse (Tg2576)
# Excerpt: (§2) Tg2576 mice are a well characterized mouse model of AD and CAA. They develop congophilic Aβ aggregates within neuritic plaques and leptomeningeal and cortical penetrating arteries at 11 months of age (Hsiao et al., 1996; Kawarabayashi et al., 2001; Fryer et al., 2005; Han et al., 2008).
# (§3) The Ki values for CAA vs. neuritic plaques will be calculated utilizing the fluorescent amyloid-ligand methoxy-X34 and fluorescent microscopic method. […] Tissue sections (3 sections per reaction) will be then mounted and coverslipped. Photographs of methoxy-X34 binding images will be taken using a Nikon fluorescent microscope. The fluorescent intensity on cerebral amyloid deposits and neuritic plaques will be separately quantified using Image J software. Finally, Ki values will be calculated by plotting % bound vs. log concentrations of competitors followed by non-linear regression using the GraphPad Prism software. The maximum binding will be obtained from the methoxy-X34 intensity in the absence of competitors, while non-specific binding will be detected by the fluorescent intensity in brain tissues incubated without methoxy-X34.
# (§4) Tg2576 mice or littermate controls at 15 months of age will be perfused with phosphatebuffered saline (PBS) for 5 min. Brains will be removed, fixed in 4% paraformaldehyde, and preserved in 30% glucose-PBS solution at 4° C. Brains will be coronally sectioned using a microtome and kept in cryoprotectant solution at −20° C. To label amyloid deposits, brain sections (3 sections per reaction) will be permeabilized with PBS containing 0.25% Triton X-100 for 20 min at room temperature, followed by incubation with 1 μM methoxy-X34 in the presence or absence of competitors at various concentrations (10-9-10-6 M). Sections will be subjected to fluorescent microscopy using a Nikon Eclipse C600 microscope. The fluorescent intensity of methoxy-X34 in vessels and neuritic plaques will be quantified using the ImageJ software. The binding affinity (Ki) will be calculated using the GraphPad Prism software.
# [6] = biological target: neuritic plaques (Homo sapiens, UniProt P05067); assay: In situ binding assay on neuritic plaques in fixed brain sections of Tg2576 mice; design: species or system mouse (Tg2576); details: for Kd: in situ, Tg2576 brain sections, read-out: Binding affinity in situ, KD (nM) on Plaques
# Excerpt: as §2, §3, §4
# [7] = system: CAA vs. neuritic plaques; assay: Fluorescent co-staining of fixed brain sections of Tg2576 mice; design: species or system mouse (Tg2576); details: aged Tg2576 mice, FIG. 1
# Excerpt: as §2
# [8] = system: CAA vs. neuritic plaques; assay: Staining of paraffin-embedded cortical sections of a human AD patient; details: autopsied AD patient cortical sections, FIG. 3
# Excerpt: as §2
# [9] = normal mice, cited from earlier work
# [10] = biological target: T1, CAA; assay: Binding affinities for CAA on isolated vessels determined by fluorescent binding; details: read-out: Binding affinity (nM) Ki
# Experimental: The isolation of cerebral vessels for biochemical analysis will be performed as described (78, 98). […] After the cerebellum is removed, the brain will be homogenized in fivefold excess of vessel buffer. An equal volume of 26% dextran will be added, and the tissue will be centrifuged at 6200×g for 30 min at 4° C. The resulting vessels form a pellet, whereas the parenchymal “vessel-free” material forms a solid, compact disc at the top of the solution. The […] will be resuspended in vessel buffer and passed over a 40-μm nylon mesh to capture vessels. Vessel and parenchymal material will be lysed in 5 M guanidine, 50 mM Tris, pH 8, with protease inhibitor cocktail (Roche) for 3 hr.
compound,measurement,setting,value
"COc1cc(/C=C/c2ccc(O)cc2)ccc1/C=C/c1ccc(O)cc1 [Methoxy-X04, reference compound]","fluorescent labeling in live mice, topical application through cranial window",[1],present in both cerebral arteries and parenchymal neuritic plaques
same,Lipophilicity Poct,[2],^b2.6
CCCCCOc1ccc2nc3ccc(=O)cc-3oc2c1 [Pentoxy-resorufin],logP,[3],2.34
[11CH3]Oc1cc(C=Cc2ccc(O)cc2)ccc1C=Cc1ccc(O)cc1 [[11C]methoxy-X04],logPoct,[2]; cited study (96),2.6
[11CH3]Oc1ccc(C=Cc2ccc(C=Cc3ccc(O)c(C(=O)O)c3)cc2)cc1C(=O)O [Methoxy-X34],Lipophilicity Poct,[2],^b0.19
O=c1ccc2nc3ccc(OCCBr)cc3oc-2c1 [WC-5-9],logP,[3],2.2
O=c1ccc2nc3ccc(OCc4ccc(I)cc4)cc3oc-2c1 [WC-5-31],Lipophilicity Poct,[3]; 30 min,>4.89??
COc1cccc(COc2ccc3nc4ccc(=O)cc-4oc3c2)c1 [WC-5-4],logP,[3],2.97
same,"Binding affinity in situ, Bmax on CAA",[4],699
CCOc1ccc2nc3ccc(=O)cc-3oc2c1 [ethyl-resorufin],"binding affinity for CAA deposits, in words",[5],low nanomolar range
same,"lipophilicity, in words",[3],moderate lipophilicity
phenyl-resorufin,"binding affinity for CAA deposits, in words",[5],low nanomolar range
same,"lipophilicity, in words",[3],moderate lipophilicity
O=c1ccc2nc3ccc(OCc4ccc(OCCF)cc4)cc3oc-2c1 [WC-5-7],logP,[3],3.42
same,"Binding affinity in situ, Bmax on CAA",[4],1304
O=c1ccc2nc3ccc(O)cc3oc-2c1 [Resorufin],binding to neuritic plaques,[6]; in situ binding assay at a concentration of 160 μM,negligible
same,logP,[3],0.387
same,staining of CAA vs. neuritic plaques,[7],CAA>>>neuritic plaques
same,staining of 3D6-positive arterioles vs. neuritic plaques,[8],prominent in 3D6-positive cerebral arterioles but was rarely seen in 3D6-positive neuritic plaques
same,"Binding affinity in situ, Bmax on CAA",[4],1523/ 885
CC(=O)OCCOc1ccc2nc3ccc(=O)cc-3oc2c1 [WC-5-8],logP,[3],2.09
O=c1ccc2nc3ccc(OCCF)cc3oc-2c1 [WC-5-2],Kd,[6],> 4000 nM
same,Lipophilicity Poct,[3],2.774
same,"Binding affinity in situ, Bmax on CAA",[4],869
same,Kd,[4],235 nM
CC(=O)Oc1ccc2nc3ccc(=O)cc-3oc2c1 [Resorufin acetate],logP,[3],2.79
COc1ccc(COc2ccc3nc4ccc(=O)cc-4oc3c2)cc1 [WC-5-5],logP,[3],1.91
same,"Binding affinity in situ, Bmax on CAA",[4],135
O=c1ccc2nc3ccc(OCc4ccccc4)cc3oc-2c1 [Benzyloxy-resorufin],logP,[3],2.21
same,"Binding affinity in situ, Bmax on CAA",[4],410
C#COc1ccc2nc3ccc(=O)cc-3oc2c1 [WC-5-1],Kd,[6],> 4000 nM
same,Lipophilicity Poct,[3],2.407
same,"Binding affinity in situ, Bmax on CAA",[4],485
same,Kd,[4],173 nM
methoxyphenyl-resorufin,"binding affinity for CAA deposits, in words",[5],low nanomolar range
same,"lipophilicity, in words",[3],moderate lipophilicity
COc1ccc2nc3ccc(=O)cc-3oc2c1 [Methoxy-resorufin],logP,[3],1.95
[11CH3]Nc1ccc(-c2nc3ccc(O)cc3s2)cc1 [[11C]PIB],brain uptake at 2 min after injection,[9]; 2 min,3.2 % ID/g
same,brain level after washout at 60 min,[9]; 60 min,0.21 % ID/g
same,fraction in the brain cleared within 60 min,[9]; within 60 min,93%
O=c1ccc2nc3ccc(OCc4cn(CCF)nn4)cc3oc-2c1 [WC-5-3],logP,[3],2.04
same,"Binding affinity in situ, Bmax on CAA",[4],527
CCOc1ccc2nc3ccc(=O)cc-3oc2c1 [Ethoxy-resorufin],Ki,[10],262 nM
same,logP,[3],2.35
same,"Binding affinity in situ, Bmax on CAA",[4],107
same,Kd,[4],247 nM
